Data as given in patent publication US6825230B2, “Spiro and dispiro 1,2,4-trixolane antimalarials” (Medicines for Malaria Venture MMV, priority 2002, dated 2004).
In brackets after ≈: the same amount, converted by molar mass. Where two headings read alike, the source gives them in different places.

Columns and labels:
[1] = tested on: Schistosoma mansoni adult worms (49-day-old); test: Effect on adult schistosomes (49-day-old) in infected mice; assay type: in vivo; conditions: for % reduction of adult worms growth at day 49 after per os application of 400 mg/kg, TWR (%) / Adult worms day 49, per os 400 mg/kg, DEAD WORM (%): single 400 mg/kg per os
Experimental: Mice were infected with 100 Schistosoma mansoni cercariae on day 49 post-treatment. Each group was treated per os with OZ compounds at single doses of 200, 400, and 600 mg/kg. Untreated mice served as the control. All groups were killed 4 weeks after treatment and the liver and intestine were removed and separated. The liver and intestine were compressed and alive male and female worms could be seen and counted.

[2] = tested on: ANKA strain of P. berghei; test: Single dose STI in vivo screen in infected mice; design: species or system Plasmodium berghei; conditions: for Survival (days) 10 mg/kg po: single 10 mg/kg po in 3% ethanol and 7% Tween 80; for Survival (days) 10 mg/kg po / Survival (days) 10 mg/kg SSV po / Survival (days) 10 mg/kg sc: untreated 6-7 days; for Activity (%) 10 mg/kg po: single 10 mg/kg po in 3% ethanol and 7% Tween 80 on day 1 post-infection; for Activity (%) 10 mg/kg po / Activity (%) 10 mg/kg SSV po / Activity (%) 10 mg/kg sc: percent reduction in parasitemia on day 3; for Survival (days) 10 mg/kg SSV po: single 10 mg/kg po in SSV; for Activity (%) 10 mg/kg SSV po: single 10 mg/kg po in standard suspending vehicle (SSV) on day 1 post-infection; for Survival (days) 10 mg/kg sc: single 10 mg/kg sc in 3% ethanol and 7% Tween 80; for Activity (%) 10 mg/kg sc: single 10 mg/kg sc in 3% ethanol and 7% Tween 80 on day 1 post-infection
[3] = tested on: chloroquine-resistant K1 strain of P. falciparum; test: In vitro antimalarial semiautomated microdilution assay ([3H]-hypoxanthine incorporation), K1 strain; assay type: cell-based, Plasmodium falciparum; conditions: for IC50: Plasmodium falciparum
How it was run: (§1)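 Asynchronous stock-culture parasites (intraerythrocytic forms), serial compound dilutions; readout [3H]-hypoxanthine uptake; IC50 via Logit regression.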

[4] = tested on: chloroquine-sensitive NF54 strain of P. falciparum; test: In vitro antimalarial semiautomated microdilution assay ([3H]-hypoxanthine incorporation), NF54 strain; assay type: cell-based, Plasmodium falciparum; conditions: for IC50: Plasmodium falciparum
How it was run: as §1

[5] = 49-day-old adults, total worm reduction rate
[6] = percentage of dead worm in the liver
[7] = K1, 72 h, read-out: IC50 (ng/ml) K1, chloroquine-resistant K1 strain, 72 h incubation
[8] = NF54, 72 h, read-out: IC50 (ng/ml) NF54, chloroquine-sensitive NF54 strain, 72 h incubation
[9] = chloroquine-sensitive NF54 strain, 72 h incubation, read-out: IC50 (ng/ml) NF54
[10] = chloroquine-resistant K1 strain, 72 h incubation, read-out: IC50 (ng/ml) K1
[11] = chloroquine-sensitive NF54 strain, 72 h incubation

Compound	% reduction of adult worms growth at day 49 after per os application of 400 mg/kg, TWR (%) [1, 5]	Adult worms day 49, per os 400 mg/kg, DEAD WORM (%) [1, 6]	Survival (days) 10 mg/kg po [2]	Activity (%) 10 mg/kg po [2]	Survival (days) 10 mg/kg SSV po [2]	Activity (%) 10 mg/kg SSV po [2]	Survival (days) 10 mg/kg sc [2]	Activity (%) 10 mg/kg sc [2]	IC50 [3, 7]	also measured
c1ccc(C2CCC3(CC2)OOC2(O3)C3CCCC2CCC3)cc1 (centres unmarked) [OZ67]	38%	0%								
CC1(C)COC2(CCC3(CC2)OOC2(O3)C3CCCC2CCC3)OC1 (centres unmarked) [OZ68]	17%	0%								
O=C(O)C1CCC2(CC1)OOC1(O2)C2CC3CC(C2)CC1C3 (centres unmarked) [OZ72]	0%									Adult worms day 49, per os 400 mg/kg, DEAD WORM (%) ([1]; percentage of dead worm in the liver, listed as OZ 72): 10%
OC1(c2ccc(F)cc2)CCC2(CC1)OOC1(O2)C2CC3CC(C2)CC1C3 (centres unmarked) [OZ76]	32%	0%								
CCS(=O)(=O)N1CCC2(CC1)OOC1(O2)C2CC3CC(C2)CC1C3 (centres unmarked) [OZ79]	4%	0%								
c1ccc(C2(c3ccccn3)OOC3(O2)C2CC4CC(C2)CC3C4)nc1 (centres unmarked) [OZ81]	28%	0%								
O=C(CO)N1CCC2(CC1)OOC1(O2)C2CC3CC(C2)CC1C3 (centres unmarked) [OZ83]	7%	19%								
O=[N+]([O-])c1cccc(C2(c3cccc([N+](=O)[O-])c3)OOC3(O2)C2CC4CC(C2)CC3C4)c1 (centres unmarked) [OZ105, Adamantane-2-spiro-3′-5′,5′-bis(3′-nitrophenyl)-1′,2′,4′-trioxolane]	8%	0%	5.7 days	16%	5.7 days	0%	6.3 days	28%	5.4 ng/mL (≈ 0.0123 µM)	
NC(=O)OC1CCC2(CC1)OOC1(O2)C2CC3CC(C2)CC1C3 (centres unmarked) [OZ107]	26%	4%	6.3 days	70%	6.3 days	32%	8.0 days	99.74%	1 ng/mL (≈ 0.00309 µM)	IC50 [4, 8]: 0.3 ng/mL (≈ 0.000928 µM)
CCN(CC)CC[C@H]1CC[C@]2(CC1)OOC1(O2)C2CC3CC(C2)CC1C3 (some centres unmarked) [OZ126]	0%	9%	7.0 days	55%	6.7 days	72%	8.5 days	99.44%		IC50 [4, 9]: 0.5 ng/mL (≈ 0.00138 µM); IC50 [3, 10]: 0.2 ng/mL (≈ 0.00055 µM)
O=C1COC2(CCC3(CC2)OOC2(O3)C3CC4CC(C3)CC2C4)OC1 (centres unmarked) [OZ130, Adamantane-2-spiro-3′-11′-oxo-1′,2′,4′,9′,13′-pentaoxadispiro[4.2.5.2]pentadecane]	0%	8%	9.0 days	98.8%	8.0 days	98.9%	7.3 days	98.6%	0.62 ng/mL (≈ 0.00177 µM)	IC50 [4, 8]: 0.94 ng/mL (≈ 0.00268 µM)
O=C([C@H]1CC[C@]2(CC1)OOC1(O2)C2CC3CC(C2)CC1C3)N1CCN(c2ccccc2)CC1 (some centres unmarked) [OZ140]	0%	3%	6.0 days	0%	6.3 days	8%	7.0 days	60%	5.9 ng/mL (≈ 0.013 µM)	IC50 [4, 8]: 8.2 ng/mL (≈ 0.0181 µM)
O=C(OC[C@H]1CC[C@]2(CC1)OOC1(O2)C2CC3CC(C2)CC1C3)N1CCN(c2ccccc2)CC1 (stereo partly drawn) [OZ148, cis-Adamantane-2-spiro-3′-1′,2′,4′-trioxaspiro[4.5]decane-8′-methyl 4-phenylpiperazine-1-carboxylate]	25%	0%	7.3 days	38%	7.7 days	58%	6.3 days	21%		IC50 [4, 9]: 16 ng/mL (≈ 0.0332 µM); IC50 [3, 10]: 17 ng/mL (≈ 0.0352 µM)
OC12CC3CC(C1)C1(OOC4(CCC5(CC4)OCCO5)O1)C(C3)C2 (centres unmarked) [OZ153, 5-Hydroxyadamantane-2-spiro-3′-1′,2′,4′,9′,12′-pentaoxadispiro[4.2.4.2]tetradecane]		no dead	6.3 days							IC50 (ng/ml) NF54 [4, 11]: 19 ng/mL (≈ 0.0561 µM); Activity (%) 10 mg/kg po ([2]; 10 mg/kg): 15%; Survival (days) 10 mg/kg SSV po ([2]; 10 mg/kg): 7.0 days; Activity (%) 10 mg/kg SSV po ([2]; 10 mg/kg): 23%; Survival (days) 10 mg/kg sc ([2]; 10 mg/kg): 6.3 days; Activity (%) 10 mg/kg sc ([2]; 10 mg/kg): 20%; IC50 (ng/ml) K1 ([3]; chloroquine-resistant K1 strain, 72 h incubation): 7.7 ng/mL (≈ 0.0228 µM)
CC1(C)COC(c2ccc([C@H]3CC[C@]4(CC3)OOC3(O4)C4CC5CC(C4)CC3C5)cc2)=N1 (some centres unmarked) [OZ154]	58%	0%							5 ng/mL (≈ 0.0114 µM)	IC50 (ng/ml) NF54 [4, 11]: 6.1 ng/mL (≈ 0.0139 µM); Survival (days) 10 mg/kg po ([2]; 10 mg/kg): 14.7 days; Activity (%) 10 mg/kg po ([2]; 10 mg/kg): 99.74%; Survival (days) 10 mg/kg SSV po ([2]; 10 mg/kg): 8.7 days; Activity (%) 10 mg/kg SSV po ([2]; 10 mg/kg): 81%; Survival (days) 10 mg/kg sc ([2]; 10 mg/kg): 7.7 days; Activity (%) 10 mg/kg sc ([2]; 10 mg/kg): 59%
O=C(C[C@H]1CC[C@]2(CC1)OOC1(O2)C2CC3CC(C2)CC1C3)N1CCOCC1 (some centres unmarked) [OZ189]	0%	30%	9.3 days	95%	9.0 days	99.79%	10.7 days	98%	1.7 ng/mL (≈ 0.00434 µM)	IC50 [4, 8]: 3 ng/mL (≈ 0.00766 µM)
C1=C(c2ccccc2)CCC2(C1)OOC1(O2)C2CC3CC(C2)CC1C3 (centres unmarked) [OZ226, Adamantane-2-spiro-3′-8′-phenyl-1′,2′,4′-trioxaspiro[4.5]dec-7′-ene]	52%	0%	5.0 days	0%	5.3 days	0%	11.0 days	99.92%	4 ng/mL (≈ 0.0118 µM)	IC50 [4, 8]: 4 ng/mL (≈ 0.0118 µM)
O=C(C1CCCCC1)N1CC(=O)N2CCc3ccccc3C2C1 (centres unmarked) [PRAZIQUANTEL, praziquantel, reference compound]	93%	89%								% reduction of adult worms growth at day 49 after per os application of 600 mg/kg, TWR (%) ([1]; single 600 mg/kg per os, 49-day-old adults, total worm reduction rate): 100/100%; Adult worms day 49, per os 600 mg/kg, DEAD WORM (%) ([1]; single 600 mg/kg per os, percentage of dead worm in the liver): 100/100%
